Results on three compounds are retold here after US11547767B2, “99mTc-EDDA/HYNIC-iPSMA as a radiopharmaceutical for detecting the overexpression of prostate-specific membrane antigen” (INSTITUTO NACIONAL DE INVESTIGACIONES NUCLEARES, priority 2016, dated 2023).

The format of series [1] is physicochemical. The method, then:
HYNIC-iPSMA (37.5 μg) was formulated as a lyophilized dosage form containing 10 mg of EDDA, 20 mg of tricine, 20 μg of stannous chloride and 50 mg of mannitol. This formulation, on being reconstituted with 1 mL of 0.2 M phosphate buffer solution, pH 7 and 1 mL of solution of sodium pertechnetate (^99mTcO4Na), obtained in situ from a generator of ^99Mo/^99mTc, produces the compound to be patented ^99mTc-EDDA/HYNIC-iPSMA (FIG. 1) with radiochemical purity greater than 98% determined by reverse-phase HPLC, which has the corresponding radiochromatogram (FIG. 3).
(§1) The radiopharmaceutical remains stable with radiochemical purity greater than 95%, 24 h after labeling. In-vitro tests of stability in human serum show binding to serum proteins of 8.3±2.1% and high radiochemical stability (>90%).

The format of series [2] is in vitro ADME, human. The method, then:
as §1

The next series concerns LNCaP tumors. Further details: species or system mice. Particulars: mouse, in vivo. The source says:
(§2) This image confirms, and is the main evidence, that because of its increased properties of affinity owing to the lipophilicity of the incorporated HYNIC molecule, ^99mTc-EDDA/HYNIC-iPSMA is able to equal the high imaging sensitivity of the PET radionuclides in the detection of tumoral lesions that overexpress PSMA.

For series [3] the following is noted: human, in vivo.
Text: as §2

In series [4] the target is T1, PSMA overexpressed in prostate cancer cells (Homo sapiens, UniProt Q04609).
T1 construct: detect in vivo PSMA overexpressed in prostate cancer cells; from tissue; host or cells: tumours and metastases in prostate cancer patients (in vivo SPECT/PET)
T1 sequence (Q04609 whole entry): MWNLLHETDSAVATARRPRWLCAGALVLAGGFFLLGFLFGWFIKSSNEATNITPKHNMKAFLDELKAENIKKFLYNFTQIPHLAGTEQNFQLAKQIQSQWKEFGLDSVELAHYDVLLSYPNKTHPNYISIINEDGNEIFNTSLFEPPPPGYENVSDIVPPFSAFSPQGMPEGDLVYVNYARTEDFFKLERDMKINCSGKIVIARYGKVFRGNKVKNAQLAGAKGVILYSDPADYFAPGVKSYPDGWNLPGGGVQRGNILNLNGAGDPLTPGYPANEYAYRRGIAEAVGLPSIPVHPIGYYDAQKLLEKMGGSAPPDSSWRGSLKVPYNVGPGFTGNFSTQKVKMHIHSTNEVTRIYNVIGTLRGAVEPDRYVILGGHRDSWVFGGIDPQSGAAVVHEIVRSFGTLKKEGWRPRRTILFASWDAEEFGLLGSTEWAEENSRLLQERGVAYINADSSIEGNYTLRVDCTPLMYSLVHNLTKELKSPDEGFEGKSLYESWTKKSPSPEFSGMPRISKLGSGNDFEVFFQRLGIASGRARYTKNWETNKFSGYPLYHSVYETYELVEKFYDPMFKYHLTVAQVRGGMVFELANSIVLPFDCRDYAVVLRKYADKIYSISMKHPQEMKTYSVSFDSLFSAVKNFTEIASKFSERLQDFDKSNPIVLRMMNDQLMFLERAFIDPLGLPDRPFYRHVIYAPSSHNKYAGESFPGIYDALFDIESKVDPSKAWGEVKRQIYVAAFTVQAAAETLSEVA
The experiment in a line: SPECT/PET imaging in patients with prostate cancer. The series is classed as in vivo. Conditions: for detection of tumors and metastases (PET and SPECT image, FIG. 6): same patient with advanced metastatic prostate cancer given both radiopharmaceuticals.
Text: as §2

The target of series [5] is T2, PSMA protein (LNCaP cells) (Homo sapiens, UniProt Q04609).
T2 construct: endogenous in cells; host or cells: LNCaP
T2 sequence (Q04609 whole entry): as above
Put plainly: affinity by studies of competence in PSMA-positive cancer cells (LNCaP). Conditions: competition in LNCaP cells. Format: binding.

Another series has as its system balb-C laboratory mice. Put plainly: toxicity in balb-C laboratory mice. Format: in vivo. Conditions: dose of 40 mg/kg.
Text: as §2

Turning to “99mTc-ethylenediaminediacetic acid/hydrazinonicotinamide-inhibitor of prostate-specific membrane antigen [99mTc-EDDA/HYNIC-iPSMA]”, the “radiochemical purity 24 h after labeling (stability)” value in series [1] is “greater than 95%”. Further, the “radiochemical stability in human serum” value in series [2] is listed as greater than 90%. In the series with LNCaP tumors, the “capture in the tumors” value was 8.7±1.3 % ID/g and the route of elimination result is “mainly with elimination by the renal route”. In addition, in series [3], the “biokinetics (clearance and organ capture)” value is “rapid clearance from the blood with greater capture and renal excretion, lower hepatic capture and high capture in the parathyroid, salivary and lacrimal glands”; the mean effective dose amounted to 4±2 mSv. In addition, the “ability to detect in vivo overexpressed PSMA (SPECT image, FIG. 5)” value in series [4] (patient with prostate cancer) is “confirming the ability of the radiopharmaceutical to detect in vivo PSMA overexpressed in prostate cancer cells”. Further, the “detection of tumors and metastases (PET and SPECT image, FIG. 6)” value in series [4] is “detect tumors and metastases of prostate cancer with high sensitivity”.
Take `O=C([O-])CN1CCN(CC(=O)[O-])CCN(CC(=O)NC[C@H]2CC[C@H](C(=O)N[C@@H](Cc3ccc4ccccc4c3)C(=O)NCCCC[C@H](NC(=O)N[C@@H](CCC(=O)O)C(=O)O)C(=O)O)CC2)CCN(CC(=O)[O-])CC1.[68Ga+3]` [68Ga-PSMA-617, reference compound]: the “detection of tumors and metastases (PET and SPECT image, FIG. 6)” value in series [4] was “detect tumors and metastases of prostate cancer with high sensitivity”.
For the compound `NNc1ccc(C(=O)N[C@@H](Cc2ccc3ccccc3c2)C(=O)NCCCC[C@H](NC(=O)N[C@@H](CCC(=O)O)C(=O)O)C(=O)O)cn1` [HYNIC-iPSMA, Glu-NH—CO—NH-Lys(β-naphthyl alanine)-HYNIC], the IC50 (in general, the point on the concentration scale where inhibition reaches its midpoint) in series [5] worked out at 2.9 ± 0.7 nM. Further, in the series with balb-C laboratory mice, the “toxicity or adverse effects” value is reported as “did not display toxicity or adverse effects”.
